# Source: patent US10322154B2, “Sandalwood oil and its uses related to clostridium infections” (Santalis Pharmaceuticals, Inc., priority 2012, dated 2019)
# Several values for one entry are separate records, joined by “and”; a condition that tells them apart may be missing. Identical values can stand only once.
# System: Clostridium difficile
# Assay: C. difficile challenge in mice, qualitative fecal pellet analysis
# Type: in vivo, C57BL/6 mouse
# Set-up: key: +: positive (for the presence of C. difficile in the stool); −: negative
# Conditions: 50 mg/kg oral gavage Days 0-4, per animal
# Description: Challenge Preparation: Challenge preparation was performed inside an anaerobe glove box in IW 305 in order to minimize oxygen exposure. A seed stock of the challenge organism (C. difficile) was thawed and added to the appropriate growth medium on Day −1. The organism was incubated anaerobically overnight (18-24 hrs) at 37° C. On the day of challenge (Day 0), the culture was diluted in DPBS to achieve a target concentration of 10^4 CFU/dose. Syringes with attached gavage needles were loaded with challenge material and placed on ice for transfer to the animal group.
# Polymer Carrier: The polymer carrier used in these studies was a composition comprising polyethylene glycol 8000 (PEG8000) and hydroxypropyl methylcellulose acetate succinate (HPMCAS-LF). HPMCAS-LF was used to make the polymer insoluble at low pH. The formulation comprising a polymer carrier and sandalwood oil comprised about 50% PEG8000, about 41.67% sandalwood oil and about 8.33% HPMCAS-LF.
# 60 female C57BL\6 mice that weighed approximately 26-30 grams and were approximately 7-11 weeks old on Day 0 were used. The C57BL/6 mouse is susceptible to C. difficile and used extensively as a good animal model for the evaluation of antibacterial therapeutics. Treatments were administered via oral gavage and/or intraperitoneally in order to mimic treatment in humans. The challenge was administered via oral gavage as this is both an effective and minimally invasive route of administration that mimics the natural route of infection.
# The body weights required for randomization were determined in Week −1 (the lowest body weights were excluded from randomization). After randomization, mice were assigned to one of six groups as indicated below in Table 6:
# Treatment Procedure: All treatment doses were vortexed before administration to animals. On Days −6, −5 and −4, animals were administered the antibiotic cocktail via oral gavage at a volume of 0.3 mL. Treatments were administered ±1 hour from the initial day of dosing. On Day −1, animals were administered Clindamycin (10 mg/kg) via intraperitoneal (IP) at a volume of 0.4 mL. Post-challenge on Days 0-4, animals were administered the appropriate test article as listed in the table above via oral gavage at a volume of 0.3 mL. Treatments were administered ±1 hour from the initial day of dosing.
# Challenge: On Day 0, mice were challenged via oral gavage with Clostridium difficile at a volume of 0.2 mL. The bacterial suspension was supplied (and maintained) on ice in pre filled syringes and inverted prior to administration to each group. […]
# Microbiology Analysis: To isolate C. difficile, fecal pellets or swabs were solubilized in PBS and then cultured onto CDSA. […] Results were recorded as positive (for the presence of C. difficile in the stool) or negative.
compound,measurement,setting,value
CN[C@H](CC(C)C)C(=O)N[C@H]1C(=O)N[C@@H](CC(N)=O)C(=O)N[C@H]2C(=O)N[C@H]3C(=O)N[C@H](C(=O)N[C@H](C(=O)O)c4cc(O)cc(O)c4-c4cc3ccc4O)[C@H](O)c3ccc(c(Cl)c3)Oc3cc2cc(c3O[C@@H]2O[C@H](CO)[C@@H](O)[C@H](O)[C@H]2O[C@H]2C[C@](C)(N)[C@H](O)[C@H](C)O2)Oc2ccc(cc2Cl)[C@H]1O [Vancomycin],Qualitative Fecal Pellet Analysis (presence of C. difficile in the stool),Day 1,−
same,Qualitative Fecal Pellet Analysis (presence of C. difficile in the stool),"Day 2, 50 mg/kg",− (9×) and +
same,Qualitative Fecal Pellet Analysis (presence of C. difficile in the stool),Day 3,−
same,Qualitative Fecal Pellet Analysis (presence of C. difficile in the stool),Day 4,−
